Source: ChEMBL document CHEMBL5291721, “A preclinical secondary pharmacology resource illuminates target-adverse drug reaction associations of marketed drugs” (Nat Commun, 2023)

Legend:
[1] = target: Sodium-dependent dopamine transporter (Homo sapiens, UniProt Q01959)
Estrogen receptor = target: T1, Estrogen receptor (Homo sapiens, UniProt P03372)
T1 sequence (P03372 whole entry): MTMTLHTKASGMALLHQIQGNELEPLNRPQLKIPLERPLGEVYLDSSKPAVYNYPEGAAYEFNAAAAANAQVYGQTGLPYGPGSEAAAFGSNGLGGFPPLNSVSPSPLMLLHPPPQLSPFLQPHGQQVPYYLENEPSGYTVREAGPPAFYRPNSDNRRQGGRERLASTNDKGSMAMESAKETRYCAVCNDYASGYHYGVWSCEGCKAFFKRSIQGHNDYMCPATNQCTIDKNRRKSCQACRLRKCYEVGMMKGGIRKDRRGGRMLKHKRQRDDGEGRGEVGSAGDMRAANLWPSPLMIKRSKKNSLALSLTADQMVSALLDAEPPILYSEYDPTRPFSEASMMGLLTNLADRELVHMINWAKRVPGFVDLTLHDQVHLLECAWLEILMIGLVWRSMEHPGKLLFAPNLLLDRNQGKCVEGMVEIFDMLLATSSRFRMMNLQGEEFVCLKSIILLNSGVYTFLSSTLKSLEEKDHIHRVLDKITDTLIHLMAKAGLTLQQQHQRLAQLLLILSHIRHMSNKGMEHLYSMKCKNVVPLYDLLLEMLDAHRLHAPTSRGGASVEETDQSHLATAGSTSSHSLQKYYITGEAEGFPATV

Thromboxane A2 receptor = target: T2, Thromboxane A2 receptor (Homo sapiens, UniProt P21731); assay type: functional, cell-based
T2 sequence (P21731 whole entry): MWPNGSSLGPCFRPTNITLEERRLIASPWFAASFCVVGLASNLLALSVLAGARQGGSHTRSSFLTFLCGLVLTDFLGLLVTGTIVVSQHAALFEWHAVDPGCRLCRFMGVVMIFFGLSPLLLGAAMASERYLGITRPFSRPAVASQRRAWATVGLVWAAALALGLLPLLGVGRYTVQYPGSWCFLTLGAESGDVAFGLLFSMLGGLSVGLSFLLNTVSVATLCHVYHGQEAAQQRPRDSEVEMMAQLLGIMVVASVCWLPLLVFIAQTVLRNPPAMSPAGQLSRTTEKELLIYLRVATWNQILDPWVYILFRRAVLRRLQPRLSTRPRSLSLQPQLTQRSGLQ

[2] = target: T3, Muscarinic acetylcholine receptor M1 (Homo sapiens, UniProt P11229); assay type: functional, cell-based
T3 sequence (P11229 whole entry): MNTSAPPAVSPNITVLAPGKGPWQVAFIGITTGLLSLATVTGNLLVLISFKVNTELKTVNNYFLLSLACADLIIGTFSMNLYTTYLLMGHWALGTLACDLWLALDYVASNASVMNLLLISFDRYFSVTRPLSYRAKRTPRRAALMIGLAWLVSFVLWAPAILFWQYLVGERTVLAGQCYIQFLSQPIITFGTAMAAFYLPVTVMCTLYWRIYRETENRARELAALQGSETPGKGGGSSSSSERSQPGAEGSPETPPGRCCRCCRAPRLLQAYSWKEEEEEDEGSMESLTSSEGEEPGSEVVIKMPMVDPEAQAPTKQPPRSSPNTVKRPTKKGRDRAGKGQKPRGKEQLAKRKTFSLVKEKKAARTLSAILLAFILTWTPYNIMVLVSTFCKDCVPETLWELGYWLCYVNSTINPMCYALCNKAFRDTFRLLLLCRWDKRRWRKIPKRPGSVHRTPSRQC

[3] = target: 3',5'-cyclic-AMP phosphodiesterase 4A (Homo sapiens, UniProt P27815); assay type: functional
Chain of 3',5'-cyclic-AMP phosphodiesterase 4A (P27815 whole entry): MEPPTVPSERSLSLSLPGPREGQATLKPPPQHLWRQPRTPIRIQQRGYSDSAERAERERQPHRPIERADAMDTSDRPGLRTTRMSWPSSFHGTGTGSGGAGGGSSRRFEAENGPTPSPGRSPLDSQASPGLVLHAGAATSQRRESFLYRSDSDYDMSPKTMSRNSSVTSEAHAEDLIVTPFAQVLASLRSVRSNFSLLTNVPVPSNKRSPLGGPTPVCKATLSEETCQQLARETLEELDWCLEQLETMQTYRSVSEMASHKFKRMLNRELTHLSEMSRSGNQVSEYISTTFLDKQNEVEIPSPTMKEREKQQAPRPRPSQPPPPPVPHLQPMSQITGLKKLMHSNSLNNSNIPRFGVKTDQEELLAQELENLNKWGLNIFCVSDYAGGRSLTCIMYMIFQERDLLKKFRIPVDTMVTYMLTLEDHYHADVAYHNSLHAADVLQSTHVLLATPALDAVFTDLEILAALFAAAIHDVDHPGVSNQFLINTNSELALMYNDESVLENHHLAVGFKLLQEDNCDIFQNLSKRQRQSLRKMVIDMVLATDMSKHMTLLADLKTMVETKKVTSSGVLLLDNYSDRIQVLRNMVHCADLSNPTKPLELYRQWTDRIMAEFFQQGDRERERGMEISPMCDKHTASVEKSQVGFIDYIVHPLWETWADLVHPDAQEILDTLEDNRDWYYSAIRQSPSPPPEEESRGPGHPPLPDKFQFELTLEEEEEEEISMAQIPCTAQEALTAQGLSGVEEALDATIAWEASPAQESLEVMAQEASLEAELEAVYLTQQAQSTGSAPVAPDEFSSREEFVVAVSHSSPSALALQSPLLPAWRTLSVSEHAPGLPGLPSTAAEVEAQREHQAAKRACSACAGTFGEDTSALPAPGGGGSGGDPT

Adenosine receptor A3 = target: T4, Adenosine receptor A3 (Homo sapiens, UniProt P0DMS8)
T4 sequence (P0DMS8 whole entry): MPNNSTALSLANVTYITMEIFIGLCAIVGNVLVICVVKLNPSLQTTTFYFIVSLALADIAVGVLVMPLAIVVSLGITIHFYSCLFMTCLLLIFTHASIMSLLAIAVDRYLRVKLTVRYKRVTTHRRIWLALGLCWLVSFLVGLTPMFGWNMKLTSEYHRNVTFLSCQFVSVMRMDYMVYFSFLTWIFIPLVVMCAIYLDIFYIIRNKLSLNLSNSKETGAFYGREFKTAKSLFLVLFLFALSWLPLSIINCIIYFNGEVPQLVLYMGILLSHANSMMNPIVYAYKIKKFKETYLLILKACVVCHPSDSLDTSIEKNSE

[4] = target: T5, Alpha-1A adrenergic receptor (Homo sapiens, UniProt P35348); assay type: functional, cell-based
T5 sequence (P35348 whole entry): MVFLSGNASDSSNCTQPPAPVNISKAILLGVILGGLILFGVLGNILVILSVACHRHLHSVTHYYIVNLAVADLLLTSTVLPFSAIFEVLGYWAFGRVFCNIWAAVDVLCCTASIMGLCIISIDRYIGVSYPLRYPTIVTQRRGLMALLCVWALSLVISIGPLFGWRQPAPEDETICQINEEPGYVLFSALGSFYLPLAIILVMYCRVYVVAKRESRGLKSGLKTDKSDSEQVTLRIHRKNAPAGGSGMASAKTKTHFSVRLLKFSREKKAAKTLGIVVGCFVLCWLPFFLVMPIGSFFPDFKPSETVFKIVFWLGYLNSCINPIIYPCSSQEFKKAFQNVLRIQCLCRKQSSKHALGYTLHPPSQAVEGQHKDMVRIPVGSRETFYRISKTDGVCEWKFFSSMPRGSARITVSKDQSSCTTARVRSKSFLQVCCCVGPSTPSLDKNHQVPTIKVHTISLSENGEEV

[5] = target: T6, Muscarinic acetylcholine receptor M2 (Homo sapiens, UniProt P08172)
T6 sequence (P08172 whole entry): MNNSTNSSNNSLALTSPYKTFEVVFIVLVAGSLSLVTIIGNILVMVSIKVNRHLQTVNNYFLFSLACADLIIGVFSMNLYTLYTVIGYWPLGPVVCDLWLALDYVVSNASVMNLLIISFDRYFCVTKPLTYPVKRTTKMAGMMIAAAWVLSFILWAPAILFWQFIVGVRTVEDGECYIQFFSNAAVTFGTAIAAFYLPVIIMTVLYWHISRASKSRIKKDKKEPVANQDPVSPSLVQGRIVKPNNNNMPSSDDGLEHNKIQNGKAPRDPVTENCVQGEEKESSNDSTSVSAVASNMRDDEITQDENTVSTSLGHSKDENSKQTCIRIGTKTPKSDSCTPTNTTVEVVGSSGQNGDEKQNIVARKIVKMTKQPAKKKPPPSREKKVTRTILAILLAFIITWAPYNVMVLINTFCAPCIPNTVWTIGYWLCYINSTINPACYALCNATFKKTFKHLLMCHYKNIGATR

[6] = target: Sodium-dependent noradrenaline transporter (Homo sapiens, UniProt P23975)
Chain of Sodium-dependent noradrenaline transporter (P23975 whole entry): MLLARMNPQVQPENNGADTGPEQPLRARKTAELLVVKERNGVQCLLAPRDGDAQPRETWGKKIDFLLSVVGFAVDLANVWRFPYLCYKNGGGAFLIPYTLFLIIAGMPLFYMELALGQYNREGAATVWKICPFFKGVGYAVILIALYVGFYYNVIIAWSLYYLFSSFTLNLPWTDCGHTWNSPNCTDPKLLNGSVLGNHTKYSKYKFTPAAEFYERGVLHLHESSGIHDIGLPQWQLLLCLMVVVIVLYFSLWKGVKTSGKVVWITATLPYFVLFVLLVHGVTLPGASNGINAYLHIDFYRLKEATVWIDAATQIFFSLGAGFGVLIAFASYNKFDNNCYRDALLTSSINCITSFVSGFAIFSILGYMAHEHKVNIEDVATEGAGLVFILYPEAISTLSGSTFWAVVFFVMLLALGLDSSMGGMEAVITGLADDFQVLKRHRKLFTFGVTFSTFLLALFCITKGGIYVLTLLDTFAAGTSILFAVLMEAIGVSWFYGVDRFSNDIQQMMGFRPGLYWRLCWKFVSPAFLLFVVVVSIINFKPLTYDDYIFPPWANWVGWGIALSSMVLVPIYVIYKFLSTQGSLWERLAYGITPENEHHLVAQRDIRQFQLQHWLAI

Mu-type opioid receptor = Mu-type opioid receptor (Homo sapiens, UniProt P35372)
Chain of Mu-type opioid receptor (P35372 whole entry): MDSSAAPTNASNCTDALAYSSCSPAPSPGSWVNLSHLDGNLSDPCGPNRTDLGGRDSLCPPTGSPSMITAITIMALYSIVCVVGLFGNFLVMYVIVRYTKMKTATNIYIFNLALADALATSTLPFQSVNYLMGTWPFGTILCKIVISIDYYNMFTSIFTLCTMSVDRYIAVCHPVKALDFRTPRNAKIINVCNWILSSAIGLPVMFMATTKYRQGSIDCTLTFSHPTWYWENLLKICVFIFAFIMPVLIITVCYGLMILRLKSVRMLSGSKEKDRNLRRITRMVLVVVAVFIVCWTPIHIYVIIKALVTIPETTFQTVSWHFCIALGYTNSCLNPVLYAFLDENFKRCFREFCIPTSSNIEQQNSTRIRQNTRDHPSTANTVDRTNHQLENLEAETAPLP
Also: assay procedure not described here.

Chain of Sodium-dependent dopamine transporter (Q01959 whole entry): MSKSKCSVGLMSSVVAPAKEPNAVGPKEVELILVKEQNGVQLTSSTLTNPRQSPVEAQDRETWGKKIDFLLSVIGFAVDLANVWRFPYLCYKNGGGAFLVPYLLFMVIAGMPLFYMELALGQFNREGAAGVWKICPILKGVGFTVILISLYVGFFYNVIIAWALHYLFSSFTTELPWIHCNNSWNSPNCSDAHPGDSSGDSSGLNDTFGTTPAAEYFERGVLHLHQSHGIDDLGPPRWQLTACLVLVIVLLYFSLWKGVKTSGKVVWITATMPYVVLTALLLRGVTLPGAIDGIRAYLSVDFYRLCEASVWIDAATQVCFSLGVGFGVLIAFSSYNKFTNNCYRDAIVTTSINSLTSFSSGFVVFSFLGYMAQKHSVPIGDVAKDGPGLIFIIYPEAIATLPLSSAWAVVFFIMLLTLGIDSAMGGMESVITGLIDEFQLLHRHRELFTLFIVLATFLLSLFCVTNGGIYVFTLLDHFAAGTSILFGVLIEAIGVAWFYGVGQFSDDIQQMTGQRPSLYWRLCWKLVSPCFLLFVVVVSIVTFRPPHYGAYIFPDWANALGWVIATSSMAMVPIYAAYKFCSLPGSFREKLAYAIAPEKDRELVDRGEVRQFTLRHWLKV

Compound | AC50 [1] [µM] | AC50 (Estrogen receptor) [µM] | AC50 (Thromboxane A2 receptor) [µM] | AC50 [2] [µM] | AC50 [3] [µM] | AC50 (Adenosine receptor A3) [µM] | AC50 [4] [µM] | AC50 [5] [µM] | AC50 [6] [µM] | AC50 (Mu-type opioid receptor) [µM]
CC(=O)Oc1c(C)c(C)c2c(c1C)CC[C@@](C)(CCC[C@H](C)CCC[C@H](C)CCCC(C)C)O2 | > 30 | > 30 | > 30 | > 30 | 9.38 | > 30 | > 30 | > 30 | > 30 | > 30
OC(c1ccccc1)(c1ccccc1)C12CC[N+](CCOCc3ccccc3)(CC1)CC2 | 0.898 | > 30 | > 30 | > 30 | 15.6 | > 30 | > 30 | 0.0044 | 2.73 | 1.07
CCC(CC)(CC(=O)Nc1cccc(/C=C/c2nc(C3CCC3)cs2)c1)C(=O)O | > 30 | > 30 | > 3 | > 10 | > 30 | – | > 3 | > 30 | > 30 | > 30
CC(=O)[C@@]1(O)CC[C@H]2[C@@H]3C=C(C)C4=CC(=O)CC[C@]4(C)[C@H]3CC[C@@]21C | > 30 | > 30 | > 30 | > 30 | > 30 | > 30 | > 30 | > 30 | > 30 | > 30
C=CCN1C[C@H](C(=O)N(CCCN(C)C)C(=O)NCC)C[C@@H]2c3cccc4[nH]cc(c34)C[C@H]21 [CABERGOLINE] | 4.64 | > 30 | > 30 | > 30 | > 30 | > 30 | – | > 30 | 29.6 | > 30
CC(C)C[C@H]1C(=O)N2CCC[C@H]2[C@]2(O)O[C@](NC(=O)[C@@H]3C[C@@H]4c5cccc6[nH]cc(c56)C[C@H]4N(C)C3)(C(C)C)C(=O)N12 [DIHYDROERGOCRYPTINE] | > 30 | > 30 | > 30 | > 30 | > 30 | > 30 | – | > 30 | > 30 | 10.3
O=c1[nH]c(=O)n([C@H]2C[C@H](O)[C@@H](CO)O2)cc1F [FLOXURIDINE] | > 30 | > 30 | > 30 | – | > 30 | > 30 | > 30 | > 30 | > 30 | > 30
Clc1cc(Cl)c(OCC#CI)cc1Cl [HALOPROGIN] | 6.43 | > 30 | > 30 | – | > 30 | 0.946 | > 30 | > 30 | 5.12 | 12.3
O=[N+]([O-])O[C@@H]1CO[C@H]2[C@@H]1OC[C@@H]2O [ISOSORBIDE MONONITRATE] | > 30 | > 30 | > 30 | > 30 | > 30 | – | > 30 | > 30 | > 30 | > 30
COc1ccc2c(c1)N(C[C@H](C)CN(C)C)c1ccccc1S2 [LEVOMEPROMAZINE] | – | > 30 | 26 | > 30 | > 30 | > 30 | – | 1.68 | > 30 | 13.5
COc1cc2nc(N3CCN(C(=O)c4ccco4)CC3)nc(N)c2cc1OC [PRAZOSIN] | 30 | > 30 | > 30 | – | > 30 | – | – | 13.3 | > 30 | 17.5
Cc1oc(=O)oc1CN1CCN(c2cc3c(cc2F)c(=O)c(C(=O)O)c2n3C(C)S2)CC1 (centres undefined) [PRULIFLOXACIN] | > 30 | > 30 | > 30 | – | > 30 | – | – | > 30 | > 30 | > 30
Nc1nc2nc[nH]c2c(=S)[nH]1 [THIOGUANINE] | > 30 | > 30 | > 30 | – | > 30 | > 30 | > 30 | > 30 | > 30 | > 30
CCCCS(=O)(=O)N[C@@H](Cc1ccc(OCCCCC2CCNCC2)cc1)C(=O)O [TIROFIBAN] | > 30 | > 30 | > 10 | > 30 | > 30 | – | > 10 | 20.4 | > 30 | > 30
COC1=C(OC)C(=O)C(C/C=C(\C)CC/C=C(\C)CC/C=C(\C)CC/C=C(\C)CC/C=C(\C)CC/C=C(\C)CC/C=C(\C)CC/C=C(\C)CC/C=C(\C)CCC=C(C)C)=C(C)C1=O [UBIDECARENONE] | > 30 | > 30 | > 30 | > 30 | > 30 | – | > 30 | > 30 | > 30 | > 30
C=CCCCCCCCCC(=O)O [UNDECYLENIC ACID] | > 30 | > 30 | > 30 | – | > 30 | – | – | > 30 | > 30 | > 30
CC[C@]1(O)C[C@H]2CN(CCc3c([nH]c4ccccc34)[C@@](C(=O)OC)(c3cc4c(cc3OC)N(C=O)[C@H]3[C@@](O)(C(=O)OC)[C@H](OC(C)=O)[C@]5(CC)C=CCN6CC[C@]43[C@@H]65)C2)C1 [VINCRISTINE] | > 30 | > 30 | > 30 | – | > 30 | > 30 | > 30 | > 30 | > 30 | > 30
